Experimental data reported in patent US7101988B2, “Polyvalent cation-sensing receptor in Atlantic salmon” (MariCal, Inc., priority 2000, dated 2006).
Residue numbers refer to the chain shown, from its start. Like-named read-outs stand apart in the source and are kept apart here. Values belong to the molecule of their own block, whether it stands above or below them.

Tests used:
[1] = tested on: olfactory epithelium of freshwater adapted juvenile Atlantic salmon; assay: Extracellular electrical potentials (EEG) from olfactory nerve; assay type: in vivo; details: for effect on olfactory epithelium response to mammalian finger rinse: 5 mM Ca2+ or 50 micromolar Gd3+; for effect on olfactory nerve response to 500 micromolar L-alanine: 5 mM Ca2+, 50 micromolar Gd3+ or 250 mM NaCl; for olfactory nerve response to stimulus: 500 micromolar L-alanine, 1 mM Ca2+, 250 mM NaCl, 50 micromolar Gd3+
Excerpt: Physiol. A 127:157–166 (1975), and Hubbard, P C, et al., Olfactory sensitivity to changes in environmental Ca2+ in the marine teleost Sparus Aurata, J. Exp. Biol. 203:3821–3829 (2000). After anaesthetizing the fish, it was placed in V-clamp apparatus where its gills were irrigated continuously with aerated seawater and its nasal lamellae bathed continuously by a stream of distilled water via a tube held in position in the inhalant olfactory opening. The olfactory nerves of the fish were exposed by removal of overlying bony structures. Stimuli were delivered as boluses to the olfactory epithelium via a 3 way valve where 1 cc of water containing the stimulus was rapidly injected into the tube containing a continuously stream of distilled water. […] Using this experimental approach, stable and reproducible recordings could be obtained for up to 6 hr after the initial surgery on the fish.

[2] = tested on: SKCaR; assay: FURA 2 based assay of SKCaR activation in transfected HEK cells; assay type: cell-based, dogfish shark (Squalus acanthias); details: for alteration in SKCaR sensitivity to Ca2+: increasing extracellular NaCl, sucrose as osmolality control; for effect of amino acids on SKCaR's response to Ca2+: 10 mM Phe, 10 mM Ile or AA Mixture, FURA-2
Excerpt: SKCaR cDNA was ligated into the mammalian expression vector PCDNA II and transfected into HEK cells using standard techniques. The presence of SKCaR protein in transfected cells was verified by western blotting. Activation of SKCaR by extracellular Ca2+, Mg2+ or NaCl was quantified using a well characterized FURA 2 based assay where increases in intracellular Ca2+ produced by SKCaR activation are detected using methodology published previously by Bai, M., S. Quinn, S. Trvedi, O. Kifor, S. H. S. Pearce, M. R. Pollack, K. Krapcho, S. C. Hebert and E. M. Brown. Expression and characterization of inactivating and activating mutations in the human Ca2+-sensing receptor. J. Biol. Chem., 32:19537–19545 (1996); and expressed as % normalized intracellular calcium response to receptor activation.
Full length recombinant dogfish (Squalas acanthias) shark kidney calcium receptor (SKCaR) was expressed in human embryonic kidney cells using methods described herein. The ability of SKCaR to respond to individual amino acids as well as various mixtures was quantified using FURA-2 ratio imaging fluorescence.
Baseline extracellular Ca^2+ concentration was 0.5 mM. Aliquots of Ca^2+ were added to produce final extracellular concentrations of 2.5 mM, 5 mM, 7.5 mM, 10 mM and 20 mM Ca^2+ with changes in the fluorescence recorded. Note that increases in cell fluorescence were greater in the presence of 10 mM Phe for extracellular Ca^2+ concentrations less than 10 mM.

[3] = molecular target: T1, HuPCaR (Homo sapiens, UniProt P41180); details: HuPCaR with Arg at AA #227; read-out: EC50 Ca2+; cited from earlier work
T1 sequence (P41180 20-1078): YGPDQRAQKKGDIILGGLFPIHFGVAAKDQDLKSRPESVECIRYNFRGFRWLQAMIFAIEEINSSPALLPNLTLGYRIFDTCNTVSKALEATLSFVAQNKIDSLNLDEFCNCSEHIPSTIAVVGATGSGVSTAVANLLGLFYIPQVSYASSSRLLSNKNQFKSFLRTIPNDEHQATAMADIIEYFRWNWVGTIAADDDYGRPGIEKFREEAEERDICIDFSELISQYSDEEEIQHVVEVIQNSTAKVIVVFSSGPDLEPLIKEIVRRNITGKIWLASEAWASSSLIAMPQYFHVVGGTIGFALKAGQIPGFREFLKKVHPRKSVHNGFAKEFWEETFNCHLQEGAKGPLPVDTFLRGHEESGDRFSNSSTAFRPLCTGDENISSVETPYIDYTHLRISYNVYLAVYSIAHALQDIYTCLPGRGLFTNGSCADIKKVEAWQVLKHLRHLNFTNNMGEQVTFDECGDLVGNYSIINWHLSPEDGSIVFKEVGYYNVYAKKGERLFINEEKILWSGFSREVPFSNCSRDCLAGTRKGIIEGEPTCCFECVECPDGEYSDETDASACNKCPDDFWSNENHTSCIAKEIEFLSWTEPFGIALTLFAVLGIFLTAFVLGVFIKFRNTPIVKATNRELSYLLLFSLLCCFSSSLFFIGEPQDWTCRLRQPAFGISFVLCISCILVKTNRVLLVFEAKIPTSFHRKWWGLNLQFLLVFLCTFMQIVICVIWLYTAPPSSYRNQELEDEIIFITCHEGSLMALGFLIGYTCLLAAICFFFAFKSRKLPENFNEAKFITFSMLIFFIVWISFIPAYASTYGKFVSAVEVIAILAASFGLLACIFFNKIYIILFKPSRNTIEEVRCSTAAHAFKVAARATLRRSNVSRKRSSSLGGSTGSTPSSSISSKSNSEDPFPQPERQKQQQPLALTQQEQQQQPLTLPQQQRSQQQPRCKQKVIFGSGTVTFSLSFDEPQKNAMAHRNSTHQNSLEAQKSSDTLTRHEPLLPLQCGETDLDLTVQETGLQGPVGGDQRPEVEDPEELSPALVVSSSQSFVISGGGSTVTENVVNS

[4] = molecular target: T2, HuPCaR (Homo sapiens, UniProt P41180, R227L); details: HuPCaR AA #227 altered to Leu; read-out: EC50 Ca2+; cited from earlier work
T2 sequence (P41180 20-1078 R227L): T1 sequence (P41180 20-1078) with R208L

[5] = normalized to response to 10 mM Ca2+

EC50 ([2]; extracellular NaCl 50 mM, read-out: EC50 for Mg2+): < 20 mM | EC50 ([2]; extracellular NaCl 550 mM, read-out: EC50 for Mg2+): ~80 mM
SMILES: [Mg+2] [Mg2+, magnesium]
concentration at which olfactory epithelium responses occur [1, 5]: 10 to 100 µM | range of extracellular Mg2+ in which SKCaR is activated [2]: 5 to 40 mM

SMILES: OC[C@H]1O[C@@](CO)(O[C@H]2O[C@H](CO)[C@@H](O)[C@H](O)[C@H]2O)[C@@H](O)[C@@H]1O [sucrose]
alteration in SKCaR sensitivity to Ca2+ [2]: not observed

SMILES: CC[C@H](C)[C@H](N)C(=O)O [Ile, L-Isoleucine]
effect of amino acids on SKCaR's response to Ca2+ [2]: increase SKCaR's response to a given Ca^2+ concentration

SMILES: N[C@@H](Cc1ccccc1)C(=O)O [Phe, L-Phenylalanine]
effect of amino acids on SKCaR's response to Ca2+ [2]: increase SKCaR's response to a given Ca^2+ concentration | increases in cell fluorescence ([2]; 10 mM, extracellular Ca2+ less than 10 mM): greater

SMILES: [Gd+3] [Gd^3+, gadolinium]
effect on olfactory epithelium response to mammalian finger rinse [1]: reversibly ablated the response | effect on olfactory nerve response to 500 micromolar L-alanine [1]: complete loss of the corresponding response | olfactory nerve response to stimulus [1]: obtained a response | concentration at which olfactory epithelium responses occur [1, 5]: 1 to 10 µM

SMILES: C[C@H](N)C(=O)O [L-alanine]
duration of olfactory nerve response ([1]; 500 micromolar): approximately 2 seconds | olfactory nerve response to stimulus [1]: large increases in both the firing frequency and amplitude in the olfactory nerve

SMILES: [Ca+2] [Ca2+, calcium]
effect on olfactory epithelium response to mammalian finger rinse [1]: reversibly ablated the response | effect on olfactory nerve response to 500 micromolar L-alanine [1]: complete loss of the corresponding response | olfactory nerve response to stimulus [1]: produce responses in EEG activity | EC50 ([1]; normalized to response to 10 mM Ca2+, read-out: half maximal excitatory response (EC50)): 0.001 to 0.01 mM | effect of added Ca2+ on sensitivity of SKCaR to Mg2+ ([2]; 3 mM Ca2+ added, as a function of extracellular NaCl): increases the sensitivity of SKCaR to Mg2+ | EC50 ([2]; depending on the extracellular concentration of NaCl, read-out: half maximal activation of SKCaR by extracellular Ca2+): 1 to 15 mM | EC50 ([2]; extracellular NaCl 50 mM, read-out: EC50 for Ca2+): < 5 mM | EC50 ([2]; extracellular NaCl 550 mM, read-out: EC50 for Ca2+): ~18 mM | EC50 [3]: 4 mM | EC50 [4]: 9.3 mM

SMILES: [Cl-].[Na+] [NaCl, sodium chloride]
effect on olfactory nerve response to 500 micromolar L-alanine [1]: resulted initially in a similar response | olfactory nerve response to stimulus [1]: produce responses in EEG activity | concentration until which olfactory epithelium is unresponsive ([1]; in vivo): 250 millimolar | alteration in SKCaR sensitivity to Ca2+ [2]: reduce the sensitivity of SKCaR to Ca2+
